Laboratory results taken from USRE37314E, “Pyrimidine derivatives” (Shionogi Seiyaku Kabushiki Kaisha, priority 1991, dated 2001).

Molecular target: T1, HMG-CoA reductase (Rattus norvegicus, UniProt P51639)
T1 construct: The rat liver microsome sample (100 μl), which was preserved at -80° C; from tissue; host or cells: liver microsomes of Sprague-Dawley rats fed 2% cholestyramine
T1 sequence (P51639 1-887): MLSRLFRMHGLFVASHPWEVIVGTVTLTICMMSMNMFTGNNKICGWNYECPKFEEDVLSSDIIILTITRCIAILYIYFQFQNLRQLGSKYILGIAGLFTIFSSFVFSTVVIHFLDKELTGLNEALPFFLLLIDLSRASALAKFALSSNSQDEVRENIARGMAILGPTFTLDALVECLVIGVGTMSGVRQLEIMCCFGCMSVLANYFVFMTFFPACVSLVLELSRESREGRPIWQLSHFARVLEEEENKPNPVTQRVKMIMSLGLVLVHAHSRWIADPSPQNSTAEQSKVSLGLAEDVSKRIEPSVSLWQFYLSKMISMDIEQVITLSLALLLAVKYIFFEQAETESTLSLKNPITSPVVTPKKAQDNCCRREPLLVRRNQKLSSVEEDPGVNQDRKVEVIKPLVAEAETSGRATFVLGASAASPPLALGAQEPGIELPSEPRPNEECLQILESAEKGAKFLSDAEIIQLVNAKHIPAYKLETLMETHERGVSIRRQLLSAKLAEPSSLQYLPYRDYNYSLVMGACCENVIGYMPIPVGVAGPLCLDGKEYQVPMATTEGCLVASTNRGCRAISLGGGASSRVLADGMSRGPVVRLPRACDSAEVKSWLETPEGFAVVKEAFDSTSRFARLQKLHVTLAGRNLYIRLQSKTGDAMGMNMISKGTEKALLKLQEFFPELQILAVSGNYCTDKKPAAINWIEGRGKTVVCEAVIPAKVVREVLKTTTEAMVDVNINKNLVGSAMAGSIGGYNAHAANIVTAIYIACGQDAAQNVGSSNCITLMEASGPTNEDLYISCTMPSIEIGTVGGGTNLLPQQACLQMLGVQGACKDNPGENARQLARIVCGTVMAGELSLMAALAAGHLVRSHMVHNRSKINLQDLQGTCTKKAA
Experiment: HMG-CoA reductase inhibitory effect (rat liver microsome, [14C]HMG-CoA, TLC/scintillation)
Assay type: biochemical
Details: comparative activity, with activity of Mevinolin (sodium salt) as reference drug taken as 100, sodium salt of test compound, 37° C., 30 minutes
Procedure: The HMG-CoA reductase inhibitory effect
(1) Preparation of rat liver microsome
Sprague-Dawley rats, which were in free access to ordinary dietes containing 2% cholestyramine and water for 2 weeks, were used for the preparation of rat liver microsome. The thus obtained microsome was the purified according to the manner by Juroda et al., Biochem. Biophys. Act, 486, 70 (1977). The microsomal fraction obtained by centrifugation at 105,000×g was washed once with a buffered solution containing 15 mM nicotinamide and 2 mM magnesium chloride (in a 100 mM potassium phosphate buffer, pH 7.4). It was homogenized with a buffer containing nicotinamide and magnesium chloride at the same weight as the liver employed. The thus obtained homogenate was cooled down and kept at -80° C.
(2) Measurement of the HMG-CoA reductase inhibitory activities
The rat liver microsome sample (100 μl), which was preserved at -80° C., was fused at 0° C. and diluted with 0.7 ml of a cold potassium phosphate buffer (100 mM, pH7.4). This was mixed with 0.8 ml of 50 mM EDTA (buffered with the aforementioned potassium phosphate buffer) and 0.4 ml of 100 mM dithiothreitol solution (buffered with the aforementioned potassium phosphate buffer), and the mixture was kept at 0° C. The microsome solution (1.675 ml) was mixed with 670 μl of 25 mM NADPH (buffered with the aformentioned potassium phosphate buffer), and the solution was added to the solution of 0.5 mM [3^-14 ](HMG-CoA (3mCi/mmol). A solution (5 μl) of sodium salt of the test compound dissolved in potassium phosphate buffer is added to 45 μl of the mixture. The resulting mixture was incubated at 37° C. for 30 minutes and cooled. After termination of the reaction by addition of 10 μl of 2N·HCl, the mixture was incubated again at 37° C. for 15 minutes and then 30 μl of this mixture was applied to thin-layer chromatography of silica gel of 0.5 mm in thickness (Merck AG, Art 5744). The chromatograms were developed in toluene/acetone (1/1) and the spot, whose Rf value was between 0.45 to 0.60, were scraped. The obtained products were put into a vial containing 10 ml of scintillator to measure specific radio-activity with scintillation counter.

Row | HMG-CoA reductase inhibitory activities | SMILES
1 | 442 | CC(C)c1nc(N(C)S(C)(=O)=O)nc(-c2ccc(F)cc2)c1C=CC(O)CC(O)CC(=O)O (single isomer, unassigned) [Compound 1a-1]
2 | 385 | CSc1nc(-c2ccc(F)cc2)c(C=CC(O)CC(O)CC(=O)O)c(C(C)C)n1 (centres unmarked) [Compound 1a-3]
3 | 279 | COc1nc(-c2ccc(F)cc2)c(C=CC(O)CC(O)CC(=O)O)c(C(C)C)n1 (centres unmarked) [Compound 1a-5]
4 | 260 | CC(C)c1nc(N(C)NS(C)(=O)=O)nc(-c2ccc(F)cc2)c1C=CC(O)CC(O)CC(=O)O (centres unmarked) [Compound 1a-7]
5 | 100 | CC[C@H](C)C(=O)O[C@H]1C[C@@H](C)C=C2C=C[C@H](C)[C@H](CC[C@@H](O)C[C@@H](O)CC(=O)O)[C@H]21 [Mevinolin Na, Mevinolin, reference compound]
